Reference: PubChem BioAssay AID2060898 (Molecular Pharmacology Branch, DTP, NCI, 2025)

Tested on: 616215-338-R-J1-PDC complex spheroid viability
Experiment: Anticancer human tumor 616215-338-R-J1-PDC patient-derived colon adenocarcinoma cell line growth inhibition [RAS]
Settings: for IC50: curve of first compound; for viability, T/C: stronger effect = lower value
Method in brief: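 Agents were tested in combination matrices in half-log decrements from a top concentration at or near clinical Cmax (10 microM if undetermined). Targets were multi-cell spheroids of tumour lines plus HUVEC and MSC stromal cells.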

[1] = second compound 0.000949 µM, first compound 0.000949 µM
[2] = second compound 0.000949 µM, first compound 0.003 µM
[3] = second compound 0.000949 µM, first compound 0.00949 µM
[4] = second compound 0.000949 µM, first compound 0.03 µM
[5] = second compound 0.000949 µM, first compound 0.0949 µM
[6] = second compound 0.000949 µM, first compound 0.3 µM
[7] = second compound 0.003 µM, first compound 0.000949 µM
[8] = second compound 0.003 µM, first compound 0.003 µM
[9] = second compound 0.003 µM, first compound 0.00949 µM
[10] = second compound 0.003 µM, first compound 0.03 µM
[11] = second compound 0.003 µM, first compound 0.0949 µM
[12] = second compound 0.003 µM, first compound 0.3 µM
[13] = second compound 0.00949 µM, first compound 0.000949 µM
[14] = second compound 0.00949 µM, first compound 0.003 µM
[15] = second compound 0.00949 µM, first compound 0.00949 µM
[16] = second compound 0.00949 µM, first compound 0.03 µM
[17] = second compound 0.00949 µM, first compound 0.0949 µM
[18] = second compound 0.00949 µM, first compound 0.3 µM
[19] = second compound 0.03 µM, first compound 0.000949 µM
[20] = second compound 0.03 µM, first compound 0.003 µM
[21] = second compound 0.03 µM, first compound 0.00949 µM
[22] = second compound 0.03 µM, first compound 0.03 µM
[23] = second compound 0.03 µM, first compound 0.0949 µM
[24] = second compound 0.03 µM, first compound 0.3 µM
[25] = second compound 0.0949 µM, first compound 0.000949 µM
[26] = second compound 0.0949 µM, first compound 0.003 µM
[27] = second compound 0.0949 µM, first compound 0.00949 µM
[28] = second compound 0.0949 µM, first compound 0.03 µM
[29] = second compound 0.0949 µM, first compound 0.0949 µM
[30] = second compound 0.0949 µM, first compound 0.3 µM
[31] = second compound 0.3 µM, first compound 0.000949 µM
[32] = second compound 0.3 µM, first compound 0.003 µM
[33] = second compound 0.3 µM, first compound 0.00949 µM
[34] = second compound 0.3 µM, first compound 0.03 µM
[35] = second compound 0.3 µM, first compound 0.0949 µM
[36] = second compound 0.3 µM, first compound 0.3 µM
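Note: spheroids exposed to agents for seven days before viability readout.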
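Throughout, for viability, T/C: 100% = DMSO vehicle control viability.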

C=CC(=O)N1CCN(c2nc(OCC3CCCN3C)nc3c(F)c(-c4nc(N)cc(C)c4C(F)(F)F)c(Cl)cc23)C(C)C1 (stereo unspecified) + CCn1c(-c2cc(N3CCN(C)CC3)cnc2C(C)OC)c2c3cc(ccc31)-c1csc(n1)CC(NC(=O)C1CC1C)C(=O)N1CCCC(N1)C(=O)OCC(C)(C)C2
IC50 (second compound 0.000949 µM): > 1000 nM | IC50 (second compound 0.003 µM): > 1000 nM | IC50 (second compound 0.00949 µM): > 1000 nM | IC50 (second compound 0.03 µM): < 3.16 nM | IC50 (second compound 0.0949 µM): < 3.16 nM | IC50 (second compound 0.3 µM): < 3.16 nM | viability, T/C (second compound 0.000949 µM, first compound 0.00316 µM): 117% | viability, T/C (second compound 0.000949 µM, first compound 0.01 µM): 103% | viability, T/C (second compound 0.000949 µM, first compound 0.0316 µM): 108% | viability, T/C (second compound 0.000949 µM, first compound 0.1 µM): 110% | viability, T/C (second compound 0.000949 µM, first compound 0.316 µM): 109% | viability, T/C (second compound 0.000949 µM, first compound 1 µM): 107% | viability, T/C (second compound 0.003 µM, first compound 0.00316 µM): 114% | viability, T/C (second compound 0.003 µM, first compound 0.01 µM): 109% | viability, T/C (second compound 0.003 µM, first compound 0.0316 µM): 111% | viability, T/C (second compound 0.003 µM, first compound 0.1 µM): 109% | viability, T/C (second compound 0.003 µM, first compound 0.316 µM): 113% | viability, T/C (second compound 0.003 µM, first compound 1 µM): 103% | viability, T/C (second compound 0.00949 µM, first compound 0.00316 µM): 87.8% | viability, T/C (second compound 0.00949 µM, first compound 0.01 µM): 77.8% | viability, T/C (second compound 0.00949 µM, first compound 0.0316 µM): 81.5% | viability, T/C (second compound 0.00949 µM, first compound 0.1 µM): 66.7% | viability, T/C (second compound 0.00949 µM, first compound 0.316 µM): 73.8% | viability, T/C (second compound 0.00949 µM, first compound 1 µM): 69.3% | viability, T/C (second compound 0.03 µM, first compound 0.00316 µM): 43% | viability, T/C (second compound 0.03 µM, first compound 0.01 µM): 55.5% | viability, T/C (second compound 0.03 µM, first compound 0.0316 µM): 49.3% | viability, T/C (second compound 0.03 µM, first compound 0.1 µM): 42.7% | viability, T/C (second compound 0.03 µM, first compound 0.316 µM): 55.4% | viability, T/C (second compound 0.03 µM, first compound 1 µM): 49.4% | viability, T/C (second compound 0.0949 µM, first compound 0.00316 µM): 35% | viability, T/C (second compound 0.0949 µM, first compound 0.01 µM): 30.8% | viability, T/C (second compound 0.0949 µM, first compound 0.0316 µM): 42.2% | viability, T/C (second compound 0.0949 µM, first compound 0.1 µM): 37.5% | viability, T/C (second compound 0.0949 µM, first compound 0.316 µM): 49.4% | viability, T/C (second compound 0.0949 µM, first compound 1 µM): 35.9% | viability, T/C (second compound 0.3 µM, first compound 0.00316 µM): 40.3% | viability, T/C (second compound 0.3 µM, first compound 0.01 µM): 31.8% | viability, T/C (second compound 0.3 µM, first compound 0.0316 µM): 36% | viability, T/C (second compound 0.3 µM, first compound 0.1 µM): 42.6% | viability, T/C (second compound 0.3 µM, first compound 0.316 µM): 42.8% | viability, T/C (second compound 0.3 µM, first compound 1 µM): 43.4%

CC1(C)CCC(Nc2ncc(C(F)(F)F)c(-c3c[nH]c4c(P(C)(C)=O)c(C#N)ccc34)n2)CN1 (stereo unspecified) + CCn1c(-c2cc(N3CCN(C)CC3)cnc2C(C)OC)c2c3cc(ccc31)-c1csc(n1)CC(NC(=O)C1CC1C)C(=O)N1CCCC(N1)C(=O)OCC(C)(C)C2
IC50 (second compound 0.000949 µM): 17.7 nM | IC50 (second compound 0.003 µM): 14.1 nM | IC50 (second compound 0.00949 µM): 7.66 nM | IC50 (second compound 0.03 µM): 7.94 nM | IC50 (second compound 0.0949 µM): < 0.949 nM | IC50 (second compound 0.3 µM): < 0.949 nM | viability, T/C [1]: 117% | viability, T/C [2]: 92.4% | viability, T/C [3]: 65.2% | viability, T/C [4]: 35.7% | viability, T/C [5]: 32.2% | viability, T/C [6]: 39.1% | viability, T/C [7]: 122% | viability, T/C [8]: 98.1% | viability, T/C [9]: 56.4% | viability, T/C [10]: 37% | viability, T/C [11]: 37.5% | viability, T/C [12]: 39.6% | viability, T/C [13]: 82.9% | viability, T/C [14]: 73.8% | viability, T/C [15]: 44.6% | viability, T/C [16]: 38.6% | viability, T/C [17]: 37.1% | viability, T/C [18]: 40.8% | viability, T/C [19]: 65.7% | viability, T/C [20]: 61.7% | viability, T/C [21]: 47.6% | viability, T/C [22]: 32.4% | viability, T/C [23]: 39% | viability, T/C [24]: 40.1% | viability, T/C [25]: 45.8% | viability, T/C [26]: 44.3% | viability, T/C [27]: 39.2% | viability, T/C [28]: 39.3% | viability, T/C [29]: 36.9% | viability, T/C [30]: 32.9% | viability, T/C [31]: 37.5% | viability, T/C [32]: 46% | viability, T/C [33]: 42% | viability, T/C [34]: 32.6% | viability, T/C [35]: 38.5% | viability, T/C [36]: 39.2%

CCc1c2c(nc3ccc(O)cc13)-c1cc3c(c(=O)n1C2)COC(=O)[C@]3(O)CC + CCn1c(-c2cc(N3CCN(C)CC3)cnc2C(C)OC)c2c3cc(ccc31)-c1csc(n1)CC(NC(=O)C1CC1C)C(=O)N1CCCC(N1)C(=O)OCC(C)(C)C2
IC50 (second compound 0.000949 µM): 12.4 nM | IC50 (second compound 0.003 µM): 6.6 nM | IC50 (second compound 0.00949 µM): 3.33 nM | IC50 (second compound 0.03 µM): < 0.949 nM | IC50 (second compound 0.0949 µM): < 0.949 nM | IC50 (second compound 0.3 µM): < 0.949 nM | viability, T/C [1]: 109% | viability, T/C [2]: 104% | viability, T/C [3]: 51.5% | viability, T/C [4]: 35.6% | viability, T/C [5]: 21.2% | viability, T/C [6]: 13.4% | viability, T/C [7]: 109% | viability, T/C [8]: 94.8% | viability, T/C [9]: 29.1% | viability, T/C [10]: 23.5% | viability, T/C [11]: 21.3% | viability, T/C [12]: 12.1% | viability, T/C [13]: 87.6% | viability, T/C [14]: 52.9% | viability, T/C [15]: 21% | viability, T/C [16]: 22.7% | viability, T/C [17]: 18.4% | viability, T/C [18]: 12.2% | viability, T/C [19]: 45.2% | viability, T/C [20]: 29.1% | viability, T/C [21]: 23.2% | viability, T/C [22]: 19.6% | viability, T/C [23]: 15.2% | viability, T/C [24]: 8.75% | viability, T/C [25]: 36.2% | viability, T/C [26]: 28.7% | viability, T/C [27]: 18.1% | viability, T/C [28]: 17.6% | viability, T/C [29]: 14.6% | viability, T/C [30]: 9.71% | viability, T/C [31]: 35.1% | viability, T/C [32]: 29.8% | viability, T/C [33]: 24% | viability, T/C [34]: 23.1% | viability, T/C [35]: 17.5% | viability, T/C [36]: 10.5%
